Among the data in patent publication US11225505B2, “Antimicrobial polymyxin derivative compounds” (MONASH UNIVERSITY, priority 2015, dated 2022) are Minimum inhibitory concentration values, retold here.

Holding throughout (assay type): cell-based
Test [1] deals with Acinetobacter baumannii FADDI-AB030. Put plainly: microbe, parasite or virus in culture. The settings on record: FADDI-AB030. The protocol:
MICs of the lipopeptides (trifluoroacetic acid salt, TFA) were determined by broth microdilution in cation-adjusted Mueller-Hinton broth (CAMHB) (Oxoid Australia, Thebarton, SA, Australia) according to the Clinical and Laboratory Standards Institute protocol (Clinical and Laboratory Standards Institute, Performance standards for antimicrobial susceptibility testing; twentyforth informational supplement M100-S24. Wayne, Pa., 2014). Polymyxin B sulphate was employed as the control. […] The following isolates were examined: Pseudomonas aeruginosa ATCC 27853, Pseudomonas aeruginosa FADDI-PA022*, Pseudomonas aeruginosa FADDI-PA01*, Pseudomonas aeruginosa FADDI-PA038*, Acinetobacter baumannii FADDI-AB034*, Acinetobacter baumannii ATCC 17978, Acinetobacter baumannii FADDI-AB030*, Klebsiella pneumoniae FADDI-KP032, Klebsiella pneumoniae FADDI-KP022*, Klebsiella pneumoniae Kp BM1*, Enterobacter cloacae FADDI-EC006, Enterobacter cloacae FADDI-EC001, and Enterobacter cloacae FADDI-EC003 (* Multi drug-resistant clinical isolates, § New Delhi Metallo-beta-lactamase-1 (NDM-1) producing). The results are illustrated in Tables 4 and 5. […]

In test [2] the test system is Pseudomonas aeruginosa ATCC 27853. The settings on record: ATCC 27853. The protocol:
(§1) MICs of the lipopeptides (trifluoroacetic acid salt, TFA) were determined by broth microdilution in cation-adjusted Mueller-Hinton broth (CAMHB) (Oxoid Australia, Thebarton, SA, Australia) according to the Clinical and Laboratory Standards Institute protocol (Clinical and Laboratory Standards Institute, Performance standards for antimicrobial susceptibility testing; twentyforth informational supplement M100-S24. Wayne, Pa., 2014). Polymyxin B sulphate was employed as the control. Antimicrobial activity of Compounds 1-104 against polymyxin-susceptible Gram-negative bacteria was examined. The following isolates were examined: Pseudomonas aeruginosa ATCC 27853, Pseudomonas aeruginosa FADDI-PA022*, Pseudomonas aeruginosa FADDI-PA01*, Pseudomonas aeruginosa FADDI-PA038*, Acinetobacter baumannii FADDI-AB034*, Acinetobacter baumannii ATCC 17978, Acinetobacter baumannii FADDI-AB030*, Klebsiella pneumoniae FADDI-KP032, Klebsiella pneumoniae FADDI-KP022*, Klebsiella pneumoniae Kp BM1*, Enterobacter cloacae FADDI-EC006, Enterobacter cloacae FADDI-EC001, and Enterobacter cloacae FADDI-EC003 (* Multi drug-resistant clinical isolates, § New Delhi Metallo-beta-lactamase-1 (NDM-1) producing). The results are illustrated in Tables 4 and 5.

For test [3], the system named is Pseudomonas aeruginosa FADDI-PA022. The settings on record: FADDI-PA022. How it is done:
as §1

Test [4] concerns Acinetobacter baumannii ATCC 17978. Particulars: ATCC 17978. How it is done:
as §1

The test system of test [5] is Pseudomonas aeruginosa FADDI-PA038. Particulars: FADDI-PA038. The protocol: as §1
The test system of test [6] is Pseudomonas aeruginosa FADDI-PA01. The settings on record: FADDI-. The protocol:
as §1

The test system of test [7] is Klebsiella pneumoniae FADDI-KP032. The settings on record: FADDI-KP032. The protocol:
as §1

The subject of test [8] is Acinetobacter baumannii FADDI-AB034. The settings on record: FADDI-AB034. How it is done:
as §1

In test [9] the test system is Enterobacter cloacae FADDI-EC003. The settings on record: FADDI-EC003. How it is done:
as §1

Test [10] has as its system Enterobacter cloacae FADDI-EC006. Particulars: FADDI-EC006. The protocol:
as §1

The subject of test [11] is Klebsiella pneumoniae Kp BM1. The settings on record: Kp BM1. The protocol: as §1
The test system of test [12] is Klebsiella pneumoniae FADDI-KP022. Particulars: FADDI-KP022. The protocol: as §1
Test [13] deals with Enterobacter cloacae FADDI-EC001. The settings on record: FADDI-EC001. How it is done:
as §1

≈ marks a conversion by molar mass, not a printed value. Where a SMILES comes first, the peptide text is derived from it. Bridges are numbered along the chain shown (N, C = ends). [ ]: non-standard residue; d: D form. The star is where a group is joined. X32 = O=C(c1cnc(Cl)c(Cl)c1)*; X15 = O=C(c1ccc(Cl)nc1Cl)*; X1 = O=C(c1ncc(Cl)cc1Cl)*; Dab = NCC[C@H](N)C(=O)O; X3 = O=C(c1cncc(Cl)c1)*; Abu = CC[C@H](N)C(=O)O; Dap = NC[C@H](N)C(=O)O A value given as a limit tells only on which side of the number the result lay.

As to `CC[C@@H]1NC(=O)[C@@H](CC(C)C)NC(=O)[C@H](CCN)NC(=O)[C@@H](NC(=O)[C@H](CN)NC(=O)[C@@H](NC(=O)[C@H](CCN)NC(=O)c2cnc(Cl)c(Cl)c2)[C@@H](C)O)CCNC(=O)[C@H]([C@@H](C)O)NC(=O)[C@H](CCN)NC(=O)[C@H](CCN)NC1=O` [Compound 5] (X32-[Dab]T[Dap][Dab][Dab][dL][Abu][Dab][Dab]T; lactam 4-C), the Minimum inhibitory concentration in test [1] worked out at 0.5 µg/mL (≈ 0.431 µM); in [2], 1 µg/mL (≈ 0.861 µM); in test [3], 1 µg/mL (≈ 0.861 µM); in [4] it was 1 µg/mL (≈ 0.861 µM); in test [5] it was 0.5 µg/mL (≈ 0.431 µM); in [6], 0.25 µg/mL (≈ 0.215 µM). Besides, the Minimum inhibitory concentration in test [7] is 0.25 µg/mL (≈ 0.215 µM); in test [8], 0.5 µg/mL (≈ 0.431 µM); in test [9] it was 0.5 µg/mL (≈ 0.431 µM); in test [10] it was 1 µg/mL (≈ 0.861 µM); in [11] it was below 0.25 µg/mL; in test [12] it was below 0.125 µg/mL. The same compound returned a Minimum inhibitory concentration in [13] of 0.25 µg/mL (≈ 0.215 µM).

Turning to `CC[C@@H]1NC(=O)[C@@H](CC(C)C)NC(=O)[C@H](CCN)NC(=O)[C@@H](NC(=O)[C@H](CN)NC(=O)[C@@H](NC(=O)[C@H](CCN)NC(=O)c2cncc(Cl)c2)[C@@H](C)O)CCNC(=O)[C@H]([C@@H](C)O)NC(=O)[C@H](CCN)NC(=O)[C@H](CCN)NC1=O` [Compound 6] (X3-[Dab]T[Dap][Dab][Dab][dL][Abu][Dab][Dab]T; lactam 4-C), the Minimum inhibitory concentration in [1] was 1 µg/mL (≈ 0.888 µM); in [2], 1 µg/mL (≈ 0.888 µM); in test [3], 1 µg/mL (≈ 0.888 µM); in [4], 2 µg/mL (≈ 1.78 µM); in test [5], 0.5 µg/mL (≈ 0.444 µM); in test [6], 0.5 µg/mL (≈ 0.444 µM). The Minimum inhibitory concentration in test [7] is 0.25 µg/mL (≈ 0.222 µM); in test [8], 2 µg/mL (≈ 1.78 µM); in [9] it was below 0.125 µg/mL; in [10], 0.25 µg/mL (≈ 0.222 µM); in test [11], 0.5 µg/mL (≈ 0.444 µM); in test [12] it was below 0.125 µg/mL. In test [13], this compound displayed a Minimum inhibitory concentration of 0.25 µg/mL (≈ 0.222 µM).

Take `CC[C@@H]1NC(=O)[C@@H](CC(C)C)NC(=O)[C@H](CCN)NC(=O)[C@@H](NC(=O)[C@H](CN)NC(=O)[C@@H](NC(=O)[C@H](CCN)NC(=O)c2ccc(Cl)nc2Cl)[C@@H](C)O)CCNC(=O)[C@H]([C@@H](C)O)NC(=O)[C@H](CCN)NC(=O)[C@H](CCN)NC1=O` [Compound 7] (X15-[Dab]T[Dap][Dab][Dab][dL][Abu][Dab][Dab]T; lactam 4-C): the Minimum inhibitory concentration in test [1] stood at 0.5 µg/mL (≈ 0.431 µM); in test [2], 1 µg/mL (≈ 0.861 µM); in test [3] it was 1 µg/mL (≈ 0.861 µM); in [4] it was 1 µg/mL (≈ 0.861 µM); in [5], 0.5 µg/mL (≈ 0.431 µM); in test [6] it was 0.25 µg/mL (≈ 0.215 µM). Moreover, the Minimum inhibitory concentration in test [7] was 1 µg/mL (≈ 0.861 µM); in [8], 2 µg/mL (≈ 1.72 µM); in test [9], below 0.125 µg/mL; in test [10] it was 0.25 µg/mL (≈ 0.215 µM); in test [11], 0.5 µg/mL (≈ 0.431 µM); in test [12], below 0.125 µg/mL. The same compound came in with a Minimum inhibitory concentration in test [13] below 0.125 µg/mL.

Regarding `CC(C)C[C@H]1NC(=O)[C@H](CCN)NC(=O)[C@@H](NC(=O)[C@H](CN)NC(=O)[C@@H](NC(=O)[C@H](CCN)NC(=O)c2ncc(Cl)cc2Cl)[C@@H](C)O)CCNC(=O)[C@H]([C@@H](C)O)NC(=O)[C@H](CCN)NC(=O)[C@H](CCN)NC(=O)[C@H]([C@@H](C)O)NC1=O` [Compound 8] (X1-[Dab]T[Dap][Dab][Dab][dL]T[Dab][Dab]T; lactam 4-C), the Minimum inhibitory concentration in test [1] amounted to 4 µg/mL (≈ 3.4 µM); in test [2], 0.25 µg/mL (≈ 0.212 µM); in [3] it was 0.5 µg/mL (≈ 0.425 µM); in test [4] it was 4 µg/mL (≈ 3.4 µM); in test [5], 0.5 µg/mL (≈ 0.425 µM); in test [6] it was 0.5 µg/mL (≈ 0.425 µM). In addition, the Minimum inhibitory concentration in test [7] was 0.5 µg/mL (≈ 0.425 µM); in test [8], 4 µg/mL (≈ 3.4 µM); in test [9], 0.25 µg/mL (≈ 0.212 µM); in test [10] it was 0.25 µg/mL (≈ 0.212 µM); in test [11] it was 0.5 µg/mL (≈ 0.425 µM); in [12], below 0.125 µg/mL. Also, the Minimum inhibitory concentration in test [13] is below 0.125 µg/mL.

Regarding `C[C@@H]1NC(=O)[C@@H](Cc2ccccc2)NC(=O)[C@H](CCN)NC(=O)[C@@H](NC(=O)[C@H](CN)NC(=O)[C@@H](NC(=O)[C@H](CCN)NC(=O)c2ncc(Cl)cc2Cl)[C@@H](C)O)CCNC(=O)[C@H]([C@@H](C)O)NC(=O)[C@H](CCN)NC(=O)[C@H](CCN)NC1=O` [Compound 9] (X1-[Dab]T[Dap][Dab][Dab][dF]A[Dab][Dab]T; lactam 4-C), the Minimum inhibitory concentration in [1] amounted to 2 µg/mL (≈ 1.69 µM); in [2], 0.25 µg/mL (≈ 0.212 µM); in test [3], 0.25 µg/mL (≈ 0.212 µM); in [4] it was 2 µg/mL (≈ 1.69 µM); in test [5], 0.5 µg/mL (≈ 0.423 µM); in test [6], 0.25 µg/mL (≈ 0.212 µM). The Minimum inhibitory concentration in test [7] was 0.25 µg/mL (≈ 0.212 µM); in [8], 2 µg/mL (≈ 1.69 µM); in test [9], below 0.125 µg/mL; in test [10] it was 1 µg/mL (≈ 0.847 µM); in test [11], 0.25 µg/mL (≈ 0.212 µM); in test [12] it was below 0.125 µg/mL. The same compound came in with a Minimum inhibitory concentration in [13] below 0.125 µg/mL.

`CC(C)C[C@H]1NC(=O)[C@H](CCN)NC(=O)[C@@H](NC(=O)[C@H](CN)NC(=O)[C@@H](NC(=O)[C@H](CCN)NC(=O)c2ncc(Cl)cc2Cl)[C@@H](C)O)CCNC(=O)[C@H]([C@@H](C)O)NC(=O)[C@H](CCN)NC(=O)[C@H](CCN)NC(=O)[C@H](C)NC1=O` [Compound 10] (X1-[Dab]T[Dap][Dab][Dab][dL]A[Dab][Dab]T; lactam 4-C): the Minimum inhibitory concentration in test [1] was found to be 8 µg/mL (≈ 6.97 µM); in test [2], 0.25 µg/mL (≈ 0.218 µM); in [3] it was 0.5 µg/mL (≈ 0.436 µM); in test [4], 4 µg/mL (≈ 3.49 µM); in test [5], 1 µg/mL (≈ 0.872 µM); in test [6] it was 0.5 µg/mL (≈ 0.436 µM). The Minimum inhibitory concentration in test [7] is 0.5 µg/mL (≈ 0.436 µM); in [8] it was 4 µg/mL (≈ 3.49 µM); in test [9], 0.25 µg/mL (≈ 0.218 µM); in test [10], 0.5 µg/mL (≈ 0.436 µM); in [11], 4 µg/mL (≈ 3.49 µM); in test [12], 0.25 µg/mL (≈ 0.218 µM). Moreover, the Minimum inhibitory concentration in test [13] stood at 0.25 µg/mL (≈ 0.218 µM).
